From patent publication US20230131899A1, “INHIBITORS OF MICROBIALLY INDUCED AMYLOID” (Axial Therapeutics, Inc., priority 2020, published 2023) come the findings set out here.

For the test, the system named is CsgA gene expression (csgBAC promoter-GFP reporter) in E. coli UTI89. Nature of the test: In vitro live cell fluorescent reporter assay of CsgA transcription (Reporter Assay). The note with it: Escherichia coli. Type of test: cell-based. The method in brief:
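Chromosomal single-copy csgBAC promoter–GFP reporter in E. coli UTI89, started at OD600 0.003 in YESCA broth with compound (0.14–100 μM, 1% DMSO), 20 h at 27 °C. GFP (ex 485/em 525 nm) background-subtracted and normalized to vehicle; IC50 and X[50] from curve fits. OD600 tracked growth effects.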
For orientation: In a reporter assay the amount or activity of a reporter protein is the signal.

Setting [1] is: read-out: Reporter Assay Abs IC50 (μM), median Abs IC50 in the CsgA reporter assay, N/A = maximum expression reduction is <50% of control.
Setting [2] is: read-out: Reporter Assay Abs IC50, activity range, class symbol.
[3] abbreviates: read-out: Reporter Assay Abs IC50 (activity range), median Abs IC50 in the CsgA reporter assay, class symbol.

Like-named read-outs stand apart in the source and are kept apart here.

The term IC50 denotes the concentration needed to halve the response being measured. As to `O=C(O)C1CN(Cc2ccccc2)c2c(-c3cccc(Br)c3)c(Cc3cccc4ccccc34)c(Cl)c(=O)n21` (centres unmarked) [Compound 198, 1-benzyl-8-(3-bromophenyl)-6-chloro-7-(naphthalen-1-ylmethyl)-5-oxo-1,2,3,5-tetrahydroimidazo[1,2-a]pyridine-3-carboxylic acid], the IC50 is 5 µM under setting [1] and 4.6 to 10 µM under setting [2].
The like results for `CN1CC(C(=O)O)n2c(c(-c3cccc(C(F)(F)F)c3)c(Cc3cccc4ccccc34)c(C(=O)NC(C)(C)C)c2=O)S1(=O)=O` (centres unmarked) [Compound 158, 7-(tert-butylcarbamoyl)-2-methyl-8-(naphthalen-1-ylmethyl)-6-oxo-9-(3-(trifluoromethyl)phenyl)-3,4-dihydro-2H,6H-pyrido[1,2-e][1,2,5]thiadiazine-4-carboxylic acid 1,1-dioxide] were, in that order, 1.7 µM and 1.3 to 4.5 µM.
For `CCNC(=O)c1c(Cc2cccc3ccccc23)c(-c2cccc(C(F)(F)F)c2)c2n(c1=O)C(C(=O)O)CN(C)S2(=O)=O` (centres unmarked) [Compound 156, 7-(ethylcarbamoyl)-2-methyl-8-(naphthalen-1-ylmethyl)-6-oxo-9-(3-(trifluoromethyl)phenyl)-3,4-dihydro-2H,6H-pyrido[1,2-e][1,2,5] thiadiazine-4-carboxylic acid 1,1-dioxide], the IC50 by setting is: under setting [1], 9.3 µM; under setting [2], 4.6 to 10 µM.
Turning to `Cn1c(=O)c2c(ncn2CCCCCCCN2CC(C(=O)O)n3c(c(-c4cccc(C(F)(F)F)c4)c(Cc4cccc5ccccc45)cc3=O)S2(=O)=O)n(C)c1=O` (centres unmarked) [Compound 036], the half-maximal inhibitory concentration (IC50) runs as follows: under setting [3], 1.3 to 4.5 µM; under setting [1], 1.6 µM.
The like results for `CNC(=O)CCCN1CC(C(=O)O)n2c(c(-c3cccc(C(F)(F)F)c3)c(Cc3cccc4ccccc34)cc2=O)S1(=O)=O` (centres unmarked) [Compound 037, 2-(4-(methylamino)-4-oxobutyl)-8-(naphthalen-1-ylmethyl)-6-oxo-9-(3-(trifluoromethyl)phenyl)-3,4-dihydro-2H,6H-pyrido[1,2-e][1,2,5]thiadiazine-4-carboxylic acid 1,1-dioxide] were, in that order, above 10 µM and 23.6 µM.
Regarding `O=C(O)C1CN(CCCCCO)c2c(-c3cccc(C(F)(F)F)c3)c(Cc3cccc4ccccc34)c(Cl)c(=O)n21` (centres unmarked) [Compound 199, 6-chloro-1-(5-hydroxypentyl)-7-(naphthalen-1-ylmethyl)-5-oxo-8-(3-(trifluoromethyl)phenyl)-1,2,3,5-tetrahydroimidazo[1,2-a]pyridine-3-carboxylic acid], the IC50 runs as follows: under setting [1], 6.9 µM; under setting [2], 4.6 to 10 µM.
Turning to `O=C(O)C1CSc2c(-c3cccc(C(F)(F)F)c3)c(Cc3cccc4ccccc34)c(CO)c(=O)n21` (centres unmarked) [Compound 057, 6-(hydroxymethyl)-7-(naphthalen-1-ylmethyl)-5-oxo-8-(3-(trifluoromethyl)phenyl)-2,3-dihydro-5H-thiazolo[3,2-a]pyridine-3-carboxylic acid], the IC50 is 4.6 to 10 µM under setting [3] and 7.1 µM under setting [1].
